Data on 1 compound can be found in patent US20170158636A1, “FUNCTIONALISED AND SUBSTITUTED CARBAZOLES AS ANTI-CANCER AGENTS” (Novogen Ltd., priority 2014, published 2017).

The subject of series [1] is actin cytoskeleton in SK-N-SH neuroblastoma cells. Nature of the series: Microfilament disruption assay (phalloidin staining, linear feature quantitation). In kind it is cell-based. The settings on record: 0-40 μM, 24 hours post treatment. As for the experimental part:
FIG. 1: Imaging and quantitation of actin filaments in SK-N-SH neuroblastoma cells treated with compound (A) 1007, (B) 1013 and (C) 1016. Cells were stained with 488-Atto-Phallodin and DAPI to visualize the actin filament bundles and the nucleus, respectively. Shown in the top panel is a representative gray scale immunofluorescent image from control (vehicle alone), 5 μM and 10 μM treated cells. […] The coloured lines indicate the detected actin filaments. Also shown is the quantitation of cell number, filament number/cell and filament number/cell area (μM^2). Statistical analysis was performed using a one way ANNOVA-multiple comparison where each drug treated group was compared to the control. ****p<0.0001, […].
The ability of compounds 1007, 1013 and 1016 to disrupt the actin cytoskeleton was assessed in vitro using the microfilament disruption assay (FIG. 1).
Briefly, SK-N-SH neuroblastoma cells were seeded at 1800 cells/well in a 384 Perkin Elmer High Content Imaging “Cell Carrier” plate and left to plate down 24 hours prior to treatment. Cells were then treated with 0-40 μM of the test compounds (1:2 serial dilution in a 10 point dose response). 24 hours post treatment, cells were fixed with 4% w/v paraformaldehyde (PBS), permeabilized with Triton-X-100 and stained with 488-Atto-Phallodin and DAPI to visualize the actin filament bundles and the nucleus respectively. Single plane images were obtained on the Perkin Elmer Opera confocal microscope using a 20× objective. Twelve fields of view per condition (representing approximately 300-800 cells) were imaged. Images were then exported and changes in the organization and numbers of actin filaments within the cell were quantitated using a linear feature detection algorithm developed by CSIRO (Vindin et al. 2014). This algorithm detects the “ridge lines” or “peaks” in local pixel intensity in the cell image. It is these “ridge lines” that correspond to actin filament bundles and allow us to quantitate the number of filaments per cell.

The subject of another series is A375 melanoma xenograft. In words: A375 melanoma flank xenograft model. In kind it is in vivo. Particulars: IV 60 mg/kg in 30% (w/v) Captisol daily for 16 days, mice. The procedure:
FIG. 5: Effect of compound 1001 on tumour growth in vivo. Compound 1001 was administered IV at 60 mg/kg for 16 days in a flank xenograft model of melanoma (A375). Tumour volume was measured every 2-3 days. **p<0.01, ***P<0.001.
In vivo efficacy studies for compound 1001 were conducted using an A375 melanoma xenograft model in Foxn-1 nu/nu athymic mice. The human melanoma cell line A375 (sourced from American Type Culture Collection (ATCC), USA) was used for developing the flank xenograft model. Briefly, five million cells were injected subcutaneously in the right flank region of the animal. When the tumors reached 130-150 mm^3 the animals were randomized into two groups, each group with 8 animals in them, so that the average tumor volume of all the groups was same.
Compound 1001 was delivered intravenously (IV) at 60 mg/kg in a 30% (w/v) Captisol (cyclodextrin-containing) formulation daily for 16 days. The control group was dosed with the Captisol vehicle alone.

A further series relates to Skeletal myosin II. Nature of the series: Actin-activated myosin II ATPase activity. In kind it is biochemical. The settings on record: 50 μM, absence of Tpm3.1. As for the experimental part:
FIG. 4: Effect of anti-tropomyosin compounds on actin-activated myosin II ATPase activity. Skeletal myosin II (30-60 nM) was incubated with 1% (v/v) DMSO or 50 μM of Blebbistatin, TR100 or compound 1001 for 5 min prior to mixing with 3 μM F-actin. Reactions were initiated with 1 mM ATP and inorganic phosphate release was detected spectrophotometrically. Data represents mean±SEM, for n=2-4 independent repeats. **P-value, 0.001<0.01.
To exclude an off-target activity, the impact of compound 1001 and TR100 (another small molecule with anti-tropomyosin activity) on myosin II ATPase activity was evaluated in the absence of Tpm3.1. The small molecule blebbistatin was included as a positive control known to inhibit myosin II ATPase activity. Blebbistatin acts by binding to the myosin-ADP-Pi complex and slowing the release of inorganic phosphate (Kovacs et al., 2004). Myosin II was pre-incubated with 50 μM of blebbistatin, TR100 or 1001 prior to mixing with F-actin. […] Compound 1001 had no effect on myosin ATPase activity at equivalent concentrations to that of TR100 (FIG. 4).

The test system of another series is SK-Mel-28 melanoma cells. In words: Anti-proliferative activity, cell-titre luminescent viability assay. In kind it is cell-based. Particulars: Homo sapiens, 72 hours exposure. As for the experimental part:
(§1) The ability of compounds 1001-1018 and 1037-1039 to inhibit the proliferation of cancer cells representative of neuroblastoma, melanoma, prostate cancer, colorectal cancer, non-small cell lung carcinoma, and triple negative breast cancer was assessed (Table 1).
(§2) Briefly, a pre-determined number of cells as calculated from cell growth assays for each of the cell lines employed were seeded into their respective culture medium (using ATCC culture parameters—http://www.atcc.org) and cultured for 24 hours at 37° C. and 5% CO2 in 96-well culture plates. Once attached, each cell line was then exposed to increasing concentrations of each respective analogue (0.03, 0.3, 3 and 30 μM for compounds 1001-13 and 1015-18; 0.1, 0.3, 1, 3, 10 and 30 μM for compounds 1014 and 1037-39), cultured for a further 72 hours and exposed to cell-titre luminescent reagent (100 μL/well) for a further 30 minutes) to measure cell viability. Luminescence was captured using an EnVision multilabel reader and the data for each analogue concentration compared against no treatment control. For compounds 1001-13 and 1015-18, semi-log plots of Percent of Control versus concentration were prepared and IC50 determined using linear regression analysis. For compounds 1014 and 1037-39, cell viability was normalized to control (vehicle alone) and dose-response curves, and half maximal effective concentration (EC50) values were determined using Graph Pad Prism 6 (nonlinear regression sigmoidal dose-response variable slope).

Series [2] deals with A549 lung (NSLC) cancer cells. The series is described as above. The settings on record: Homo sapiens, 72 hours exposure. In kind it is cell-based. As for the experimental part:
as §1, §2

The test system of series [3] is DU145 prostate cancer cells. The description is as above. Type of series: cell-based. Particulars: Homo sapiens, DU-145, 72 hours exposure. As for the experimental part: as §1, §2
Series [4] deals with MDA-MB-231 breast cancer cells. The description is as above. In kind it is cell-based. The settings on record: Homo sapiens, 72 hours exposure. The procedure: as §1, §2
Series [5] concerns PC3 prostate cancer cells. The series is described as above. Type of series: cell-based. Particulars: 72 hours exposure. As for the experimental part: as §1, §2
The next series deals with Tpm3.1 (Homo sapiens, UniProt P06753). Nature of the series: Cell free actin co-sedimentation assay. The settings on record: 50 μM compound, 3 μM F-actin. Type of series: binding. As for the experimental part: (§3) FIG. 3: Impact of compound 1001 on the polymerization of tropomyosin and its subsequent association with actin. Increasing concentrations of (A) cytoskeletal Tpm3.1 or (B) muscle alpha-fast Tm (0.3-4.0 μM) were pre-incubated with 1% (v/v) DMSO (vehicle control) or 50 μM ATM-1001 prior to combining with 3 μM F-actin. The Tm/F-actin mixture was sedimented and the ratio of tropomyosin:actin in the pellet, normalized to the ratio that occurs at tropomyosin saturation, was plotted against the concentration of unbound tropomyosin in the supernatant.
(§4) Cell free actin co-sedimentation assays were preformed to analyze the impact of compound 1001 on the polymerization of tropomyosin and subsequent association with actin. The impact of compound 1001 on Tpm3.1 binding was compared to the striated muscle isoform, alpha-fast Tm, which has an unrelated C-terminus.

A further series addresses alpha-fast Tm (Homo sapiens, UniProt P09493). In words: Cell free actin co-sedimentation assay. Type of series: binding. Particulars: 50 μM compound, 3 μM F-actin. As for the experimental part:
as §3, §4

alpha-fast Tm, sequence (P09493 whole entry): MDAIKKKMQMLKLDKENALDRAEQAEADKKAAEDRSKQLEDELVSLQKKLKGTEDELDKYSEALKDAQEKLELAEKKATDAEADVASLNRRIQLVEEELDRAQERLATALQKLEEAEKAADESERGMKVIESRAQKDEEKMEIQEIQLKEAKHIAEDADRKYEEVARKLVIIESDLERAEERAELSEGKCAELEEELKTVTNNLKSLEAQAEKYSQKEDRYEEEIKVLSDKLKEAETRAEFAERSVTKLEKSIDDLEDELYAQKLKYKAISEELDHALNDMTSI
Tpm3.1, sequence (P06753 1-248 isoform P06753-2): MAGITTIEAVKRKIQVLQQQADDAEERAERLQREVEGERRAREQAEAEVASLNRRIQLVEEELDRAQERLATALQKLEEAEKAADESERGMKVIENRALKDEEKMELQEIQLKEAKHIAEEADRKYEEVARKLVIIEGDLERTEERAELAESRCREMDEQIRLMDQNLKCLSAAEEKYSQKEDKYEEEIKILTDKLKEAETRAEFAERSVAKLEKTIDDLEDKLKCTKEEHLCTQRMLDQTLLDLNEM

For `CN(C)CCCn1c2ccccc2c2cc(C(=O)N3CCN(CCc4ccccc4)CC3)ccc21` [Compound 1001, (9-(3-(dimethylamino)propyl)-9H-carbazol-3-yl)(4-phenethylpiperazin-1-yl)methanone], the “disruption of the actin cytoskeleton” value in [1] was “strong on-target, dose-dependent profile”. Besides, the “reduction in melanoma tumor growth” value in the series on A375 melanoma xenograft was around 40%. Moreover, the tolerance of treatment entry in the series on A375 melanoma xenograft is “well tolerated”. Further, in the series on Skeletal myosin II, the “effect on actin-activated myosin II ATPase activity” value is reported as “no effect”. The IC50 in the series on SK-Mel-28 melanoma cells was 2.3 µM; in series [2], 8.5 µM; in [3], above 30 µM; in [4] it was 4.4 µM; in [5] it was 5.5 µM. At Tpm3.1, the “polymerization and association of Tpm3.1 with actin” value is on record as “profoundly inhibited”. Besides, at alpha-fast Tm, the “binding affinity and cooperativity of alpha-fast Tm for F-actin” value was “not affected”.

As usually defined, the IC50 is the point on the concentration scale where inhibition reaches its midpoint.
